For this series, the system named is interleukin-18 (IL-18). The series is described as follows: Skin sensitization potential: IL-18 production in HEK. The format is cell-based, human. The note with it: 16 hours. As for the experimental part:
It is possible for a material to not be cytotoxic, and yet be unsafe due to provoking an allergic reaction upon skin contact. Typically, initial exposure to an allergen sensitizes the immune system, and following exposures cause an allergic response. […] Thus, IL-18 production in HEK was evaluated to determine sensitization potential.
Normal human adult epidermal keratinocytes (HEK) were cultured as described above for the cytoxicity evaluation. […] The cell lysates were collected, and IL-18 was quantified using Human IL-18 ELISA Kit (Catalog #7620, produced by MBL International Co., Woburn, Mass., USA). […] Fold changes of IL-18 levels between test articles and respective vehicle controls were calculated and compared to pPD (positive control). […]

The values that follow come from patent publication US10172787B2, “Method of regulating a condition of mammalian keratinous tissue” (priority 2015, dated 2019).

For `Nc1ccc(N)cc1` [benchmark sensitizer, para-phenylenediamine], the “IL18 Maximum fold (vs vehicle control)” value came to 7.8 fold).
